Patent US20190255083A1 (priority 2011, published 2019)

Columns and labels:
[1] = test system: pathogenic strains of Campylobacter; settings: background statement; cited from earlier work
[2] = test system: mixed microbiota of three infants (fecal slurry); assay: Anaerobic culture of infant fecal microbiota with oligosaccharide substrate; format: cell-based, human infant feces; settings: 24 h
Method: First, the impact of 2′-FL and HMO were examined on fresh samples of mixed microbiota of three infants. A carbohydrate-free basal medium was prepared according to Hughes (Hughes S, et al. 2008 FEMS Microbiol Ecol, 64(3): 482-93) to study the growth of fecal bacteria during fermentation of human milk oligosaccharides (HMO) or 2′-FL. This basal medium contained per liter: 2 g peptone (Oxoid Ltd., Basingstoke, UK), 2 g yeast extract (Oxoid), 0.1 g NaCl, 0.04 g K2HPO4, 0.01 g MgSO4.7H2O, 0.01 g CaCl2.6H2O, 2 g NaHCO3, 0.005 g haemin (Sigma), 0.5 g L-cysteine HCl (Sigma), 0.5 g bile salts (Oxoid), 2 ml Tween 80, 10 μl vitamin K (Sigma), and 4 ml of 0.025% (w/v) resazurin solution. Anaerobic culture methods were those described in Bryant (Bryant, M 1972 Am J Clin Nutr, 25(12): 1324-8) using Hungate culture tubes, sealed with butyl rubber septa. Media were prepared and maintained anaerobically using O2-free CO2.
Fresh fecal samples were collected from three healthy babies, identified as A, B and C, who had not received antibiotics or pre/probiotics and had no history of gastrointestinal disorder. Fresh human infant feces were added to phosphate-buffered sterile anaerobic saline solution (1:10 feces to saline), mixed in a blender for 60 s, homogenized and filtered through a double layer of sterile cheesecloth. 2 g/L 2′FL and 5 g/L HMO were dissolved for 1 hour in medium before inoculation with 10% (v/v) fecal slurry prepared as above. Hungate tubes containing 2′-FL or HMO were inoculated with fecal material, serving as the treatment. Hungate tubes containing no substrate were also inoculated with feces, to serve as negative control. All tubes were incubated at 37° C. Culture supernatant samples were taken at 24 h. All samples were stored at −20° C. for further analysis. FIGS. 1, 2 and 3 show the results. Prebiotics are associated with an increase in the numbers of microbiota, especially bifidobacteria and lactobacilli, a decrease in gut pH, and an increase in lactic acid. […] These changes are all characteristic of prebiotics.

[3] = test system: purified bacterial strains isolated from human microbiota (Table 1: Bifidobacterium longum, Bacteroides vulgatus, Bacteroides fragilis, Clostridium …); format: cell-based, bacterial isolates, mainly from human (infant) feces; settings: for growth (optical density, OD 600 nm) of individual bacterial isolates / final culture pH of individual bacterial isolates: 2 g/L 2′-FL, 3-FL, LDFT or FOS, 5 g/L HMOS, ZMB1 medium, for most of these bacteria; for growth (optical density, OD 600 nm) of individual bacterial isolates / final culture pH of individual bacterial isolates / decrease in culture pH compared with FOS: 48 h; for growth (optical density, OD 600 nm) of individual bacterial isolates: anaerobic, 37° C.; for decrease in culture pH compared with FOS: 2 g/L each, in most cases; for production of lactic acid: summary statement, for FOS: fecal slurrys and individual bacteria of the human microbiome

Substance | Campylobacter binding and infectivity [1] | pH of infant microbiota cultures ([2]; 2′-FL 2 g/L, HMOS 5 g/L, three microbial communities, FIG. 2) | lactic acid produced in infant microbiota cultures ([2]; 2′-FL 2 g/L, HMOS 5 g/L, three microbial communities, compared to controls, FIG. 3) | total bacteria (bacterial growth) in infant microbiota cultures ([2]; 2′-FL at 2 g/L, HMOS at 5 g/L, fecal slurry of 3 infants (A, B, C), 37° C., anaerobic, vs no-substrate control, FIG. 1) | growth (optical density, OD 600 nm) of individual bacterial isolates [3] | final culture pH of individual bacterial isolates [3] | decrease in culture pH compared with FOS [3] | production of lactic acid [3]
2′-fucosyllactose [2′-FL] | inhibited | pH is reduced | significantly higher amounts of lactic acid are produced compared to controls | induced an increase in total bacteria | growth was stimulated (to various degrees) | the pH of cultures decreased | at least as great | induce the production of lactic acid
3-fucosyllactose [3-FL] | – | – | – | – | growth was stimulated (to various degrees) | the pH of cultures decreased | at least as great | induce the production of lactic acid
lactodifucotetraose [LDFT] | – | – | – | – | growth was stimulated (to various degrees) | the pH of cultures decreased | at least as great | induce the production of lactic acid
